Here are results for 16 molecules from PubChem BioAssay (NCI).

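Method: 48-hour compound exposure of cells in 96-well plates, five concentrations, linear interpolation of endpoints. GI50: concentration for 50% inhibition of growth. At the TGI there is no net growth.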

Test systems include A498 renal; BT-549 breast; HOP-62 NSCLC; HS 578T breast; KM12 colon; NCI-H522 lung; OVCAR-3 ovarian; SK-MEL-2 melanoma; SK-MEL-5 melanoma; NCI/ADR-RES ovarian.
Common to all, as to assay: NCI anticancer screen, dose series, 48 h

As for `CCN(CC)C1Oc2cc3c(cc2C(c2cccc(OC)c2OC)C1C)OCO3` (stereo not drawn), the TGI in the assay on A498 renal was 23.3 µM; in the assay with BT-549 breast, 23.6 µM; in the assay on HOP-62 NSCLC, 30.2 µM; in the assay on HS 578T breast it was 28.8 µM; with KM12 colon, 29.5 µM; in the assay with NCI-H522 lung it was 26.3 µM. In addition, the figures for the TGI in the assay with OVCAR-3 ovarian, with SK-MEL-2 melanoma and in the assay on SK-MEL-5 melanoma were 9.97 µM, 30.2 µM and 21.3 µM, respectively.
Consider `O=C1Cc2c([nH]c3ccc(C(=O)O)cc23)-c2ccccc2N1`, for which the TGI with A498 renal, with BT-549 breast, in the assay on HOP-62 NSCLC, in the assay with HS 578T breast, in the assay with KM12 colon and in the assay with NCI/ADR-RES ovarian was more than 100 µM throughout. Further, the TGI in the assay with OVCAR-3 ovarian and in the assay on SK-MEL-2 melanoma was more than 100 µM in each case.
As to `COc1cccc(C2c3cc4c(cc3OC3COC(=O)C32)OCO4)c1OC` (stereo not drawn), the TGI in the assay with A498 renal, with BT-549 breast, in the assay on HOP-62 NSCLC, in the assay on HS 578T breast, with KM12 colon and with NCI/ADR-RES ovarian was more than 100 µM each time. Further, the TGI with OVCAR-3 ovarian, in the assay with SK-MEL-2 melanoma and in the assay on SK-MEL-5 melanoma was more than 100 µM in each case.
In the case of `c1ccc(CC2COC(c3cccs3)=N2)cc1` (stereo not drawn), the TGI in the assay on BT-549 breast, in the assay with HOP-62 NSCLC, in the assay on HS 578T breast, in the assay on KM12 colon, in the assay on NCI-H522 lung and with NCI/ADR-RES ovarian was more than 100 µM throughout. In addition, the TGI with OVCAR-3 ovarian, in the assay with SK-MEL-2 melanoma and in the assay with SK-MEL-5 melanoma was more than 100 µM throughout.
As to `COc1cccc(/N=N/C(=NNC(=O)c2ccc(C)cc2)c2ccc(N(C)C)cc2)c1`, the TGI in the assay with BT-549 breast, with HS 578T breast, with KM12 colon, with NCI-H522 lung, with NCI/ADR-RES ovarian and in the assay with OVCAR-3 ovarian was more than 100 µM each time. In addition, the TGI with SK-MEL-2 melanoma and in the assay with SK-MEL-5 melanoma was more than 100 µM in each case.
Regarding `CC[C@@]1(O)C(=O)OCc2c1cc1n(c2=O)Cc2c-1nc1ccccc1c2/C=N\NC(=O)C(N)CCSC` (stereo partly drawn), the TGI with A498 renal was 0.359 µM; with HS 578T breast, more than 100 µM; in the assay on NCI-H522 lung, 2.02 µM; in the assay with NCI/ADR-RES ovarian it was 23.9 µM; with OVCAR-3 ovarian, 3.08 µM; with SK-MEL-2 melanoma, 4.2 µM. This molecule also showed a TGI in the assay on SK-MEL-5 melanoma of 0.191 µM.
For `COc1ccc(Nc2ccc([N+](=O)[O-])cc2[N+](=O)[O-])cc1CN(CCCl)CCCl`, the GI50 was 1.88 µM in the assay on A498 renal; 1.41 µM in the assay on BT-549 breast; 2.97 µM in the assay on HOP-62 NSCLC; 3.66 µM in the assay with KM12 colon; 1.76 µM with NCI-H522 lung; 2.36 µM with OVCAR-3 ovarian. In addition, the GI50 in the assay with SK-MEL-2 melanoma was 2.28 µM. In addition, the TGI came out at 4.94 µM in the assay on A498 renal; 3.96 µM in the assay with BT-549 breast; 20.9 µM with HOP-62 NSCLC; 51 µM in the assay on KM12 colon; 4.29 µM in the assay with NCI-H522 lung; 7.85 µM in the assay with OVCAR-3 ovarian. In the assay with SK-MEL-2 melanoma, this molecule returned a TGI of 5.66 µM.
As for `COC(=O)C1CCC(=O)N1C(c1ccc2c(c1)OCO2)c1cc(OC)c(OC)c(OC)c1` (stereo not drawn), the TGI is more than 100 µM in the assay on A498 renal; more than 100 µM with BT-549 breast; more than 100 µM in the assay on HOP-62 NSCLC; more than 100 µM in the assay with HS 578T breast; more than 100 µM in the assay on KM12 colon; 24.4 µM with NCI-H522 lung. Further, the TGI in the assay with OVCAR-3 ovarian, in the assay with SK-MEL-2 melanoma and with SK-MEL-5 melanoma was more than 100 µM throughout.
Take `O=C(c1ccccc1)c1c(CC(O)c2ccncc2)n(C(=O)c2ccccc2)c2ccccc12` (stereo not drawn): the TGI with HOP-62 NSCLC was 31.6 µM; with KM12 colon, 37.8 µM; in the assay on NCI-H522 lung, 29.7 µM; with OVCAR-3 ovarian, 28.9 µM; in the assay with SK-MEL-2 melanoma, 31 µM; in the assay with SK-MEL-5 melanoma it was 30.1 µM.
Turning to `O=C1c2ccccc2N2OC3(N4CCCC4)CCCCC3C12c1ccccc1` (stereo not drawn), the TGI with A498 renal is more than 100 µM; with HOP-62 NSCLC, more than 100 µM; with NCI-H522 lung it was 29.1 µM; with SK-MEL-5 melanoma it was 32 µM.
Consider `COC(=O)C(=O)Cc1nc2ccccc2o1`, for which the TGI in the assay on A498 renal, in the assay with HOP-62 NSCLC, in the assay on KM12 colon, in the assay on NCI-H522 lung, with OVCAR-3 ovarian and with SK-MEL-2 melanoma was more than 100 µM each time.
Regarding `C=C(C)[C@@H]1CC[C@]2(C(=O)OC)CC[C@]3(C)[C@H](CC[C@@H]4[C@@]5(C)CC[C@H](O)C(C)(C)[C@@H]5CC[C@]43C)[C@@H]12`, the TGI in the assay on A498 renal is 36.7 µM; with HOP-62 NSCLC, 41.3 µM; with HS 578T breast, 56.5 µM; in the assay on KM12 colon, more than 100 µM; in the assay on NCI-H522 lung it was 40.6 µM; in the assay on NCI/ADR-RES ovarian, 51.7 µM. The TGI amounted to 40.1 µM in the assay on OVCAR-3 ovarian and 41.3 µM with SK-MEL-5 melanoma.
In the case of `CCCCCCCCCCCC[N+](CCCCCCCCCCCC)=C1SCCS1`, the TGI in the assay on A498 renal amounted to 29.4 µM; in the assay with HOP-62 NSCLC, 30.5 µM; in the assay on NCI-H522 lung it was 19.5 µM; with OVCAR-3 ovarian, 19.8 µM; in the assay with SK-MEL-2 melanoma, 23.2 µM; in the assay with SK-MEL-5 melanoma it was 18.5 µM.
As for `Nc1ccc(Nc2cc(=O)[nH]c(=O)[nH]2)cc1Cl`, the TGI with A498 renal, in the assay with BT-549 breast, with HS 578T breast, in the assay with NCI-H522 lung, in the assay with NCI/ADR-RES ovarian and in the assay with OVCAR-3 ovarian was more than 100 µM throughout. Moreover, the TGI with SK-MEL-2 melanoma and in the assay on SK-MEL-5 melanoma was more than 100 µM in each case.
`O=C1NC2CCCCCC2C12CCCCC2` (stereo not drawn): the TGI in the assay with A498 renal, in the assay on HOP-62 NSCLC, with KM12 colon and in the assay with OVCAR-3 ovarian was more than 100 µM each time.
Turning to `CCOC(=O)c1c[nH]c2ccc3c(c2c1=O)S(=O)(=O)CC3` (tested in a mixture with another compound), the TGI in the assay on A498 renal, with HOP-62 NSCLC, with KM12 colon, in the assay with NCI-H522 lung, in the assay with NCI/ADR-RES ovarian and with OVCAR-3 ovarian was more than 100 µM throughout. The TGI in the assay with SK-MEL-2 melanoma and in the assay on SK-MEL-5 melanoma was more than 100 µM throughout.
